# In patent US8637679B2, “Process for the isolation of organic compounds useful for the treatment of cancer” (Council of Scientific and Industrial Research, priority 2011, dated 2014):
# Experiments:
# U87MG = experiment: MTT cell viability assay, U87MG; type: cell-based, human; settings: Homo sapiens, U-87 MG, 48 hrs
# Experimental: (§1) Human cervical cancer cell lines (HeLa, ME-180 and SiHa), brain tumor cell lines (U87MG, U373MG, U87MG EGFRvIII, T98G, A172 and LN229), lymphoid leukemia (MOLT-3, MOLT-4, REH and CEMC-7), myloid leukemia (K562), pancreatic cancer (MIAPaCa-2, AsPC-1, Panc-1 and Panc 10.05), lung cancer (A549) and colon cancer (HCT116 and SW480) cell lines from American Type Culture Collection, Manassas, Va., USA were grown in IMDM or RPMI (cell specific) Medium supplemented with 10% fetal bovine serum and 1% antibiotic-antimycotic. Cells were cultured in 37° C. in an atmosphere of 5% CO2.
# (§2) Viability of cancer cell lines after treatment as at the indicated times was determined by MTT assay. Briefly, 10,000 cells were plated in triplicate in 96 well plates and incubated for 24 and 48 hours in complete media in presence of varying dose of mahanine (0-50 μM). 100 ug MTT was added in each well. Incubate the plate for 1-4 hours at 37° C. and humidified 5% CO2 atmosphere. Absorbance was recorded at 550 nm with 96 well plate readers.
# MIAPaCa-2 [1] = experiment: MTT cell viability assay, MIAPaCa-2; type: cell-based, human; settings: Homo sapiens, MIA PaCa-2; MIAPaCa-2, 48 hrs
# Experimental: as §1, §2
# ME180 = experiment: 7-AAD flow cytometric apoptosis, ME180; type: cell-based, human; settings: ME180, 25 μM mahanine
# Experimental: (§3) U87MG, LN229, HeLa, SiHa and ME180 (1×10^6 cells) cells were cultured in 6-well plates in presence or absence of Mahanine (25 μM) for 24 hrs. Cells were washed in PBS, incubated with 7-Aminoactinomycin D (7-AAD) at 4° C. for 20 min and processed. Data acquisition was done on a FACSCalibur flow cytometer (BD) at excitation wavelength at 488 nm and emission wavelength at 647 nm and analyzed with CellQuestPro software.
# [2] = tested on: glioma (T98G) and cervical (HeLa) cancer cells; experiment: Comparative cytotoxicity of mahanine and analogs by MTT; type: cell-based, human
# Experimental: as §1, §2
# K562 = experiment: MTT cell viability assay, K562; type: cell-based, human; settings: Homo sapiens; K562, 48 hrs
# Experimental: as §1, §2
# MIAPaCa-2 [3] = experiment: In vitro colony formation on matrigel; type: cell-based, human
# [4] = tested on: intracellular Ca2+ in MIAPaCa-2; experiment: Intracellular Ca2+ measurement (Fluo-3/AM); type: cell-based, human; settings: MIAPaCa-2, with and without extra-cellular Ca2+
# Experimental: MIAPaCa-2 cells (3×10^6), treated with mahanine, were washed in 1× Hanks Balanced Salt Solution (HBSS) [Gibco, Invitrogen Corporation, USA] and then loaded with Fluo-3/AM (2 μM, Calbiochem, Germany) in HBSS containing 1.26 mM CaCl2. The cells were incubated at 37° C. for 30 min in dark with gentle agitation. All extracellular Fluo-3/AM was removed by two-three times washing in aforesaid buffer. The level of cytoplasmic Ca^2+ within Fluo-3/AM loaded MIAPaCa-2 was determined in time dependent manner in the absence and presence of CaCl2 (1.26 mM CaCl2).
# LN229 = experiment: MTT cell viability assay, LN229; type: cell-based, human; settings: Homo sapiens, LN-229; LN229, 48 hrs
# Experimental: as §1, §2
# HeLa = experiment: 7-AAD flow cytometric apoptosis, HeLa; type: cell-based, human; settings: 25 μM mahanine
# Experimental: as §3
# [5] = tested on: endoplasmic reticulum (ER) stress in MIAPaCa-2 cells; experiment: ER-Tracker Blue-White DPX confocal microscopy; type: cell-based, human; settings: MIAPaCa-2, 18 hrs, 10 μM and 20 μM mahanine
# Experimental: MIAPaCa-2 cells were seeded in 8 chambered polystyrene culture slide [BD Falcon, USA] at […] cells per well in RPMI-1640 medium supplemented with 10% FBS. After 24 hrs of seeding, cells were exposed to different concentration of mahanine along with vehicle control. Cells were washed with 1× Hanks Balanced Salt Solution (HBSS) after 18 hrs of incubation and processed for ER staining. Pre-warmed ER-Tracker Blue White DPX (Molecular Probes) was added to the cells at 500 nM working concentration and incubated for 30 mins at 37° C. at 5% CO2 incubator. The loading solution was removed and cells were then washed again in HBSS and samples were analyzed using confocal laser scanning microscope (NICON A1-R, NICON, Japan). Images were recorded using 60×/1.40 oil plan Apo-N objectives at calibrated magnification.
# Vero = experiment: MTT cell viability assay, Vero normal cells; type: cell-based, African monkey
smiles,measurement,setting,value
"CC(C)=CCCC1(C)C=Cc2c(c(C)cc3c2[nH]c2cc(O)ccc23)O1 (centres unmarked) [Mahanine, mahanine]",IC50,U87MG,13.4 ± 0.4 µM
same,IC50,MIAPaCa-2 [1],13.9 µM
same,apoptosis (7-AAD+ve cells),ME180,80.5%
same,fold less IC50 of mahanine compared to mahanimbine,[2],2-2.5 fold
same,IC50,K562,13 ± 1.1 µM
same,colony formation,"MIAPaCa-2 [3]; 15 μM, within 24 hrs",absolutely inhibited
same,colony formation,"MIAPaCa-2 [3]; 20 μM, after 72 hrs",could not colonize
same,inhibition at 10 µM,"MIAPaCa-2 [3]; Homo sapiens, MIA PaCa-2, 10 μM, within 24 hrs",~20%
same,time to maximum enhancement of intracellular Ca2+ pool,[4],≤ 15 min
same,IC50,LN229,13.7 ± 0.3 µM
same,apoptosis (7-AAD+ve cells),HeLa,92.28%
same,ER-Tracker staining (ER stress),[5],significantly increased blue staining
same,IC50,"Vero; Primates, Vero normal cell line, 48 hrs",> 100 µM
same,sensitivity of Vero cells,"Vero; proliferating normal cells, in vitro",less sensitive
